Measurements: PubChem BioAssay AID256 (DTP/NCI, 2004)
Several values for one entry are separate records, joined by “and”; a condition that tells them apart may be missing. Identical values can stand only once. Inconclusive results and toxic doses are left out. How the source made its calls: active means survival T/C of 150% or more; inactive means T/C below 125% in these data.

System: CD2F1 mice, L1210 leukemia ip, survival T/C
Experiment: NCI In Vivo Anticancer Drug Screen. Data for tumor model L1210 Leukemia (intraperitoneal) in CD2F1 (CDF1) mice
Settings: higher = longer survival
In short: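 Mice carrying a transplanted tumor received test compound or vehicle alone. The value is the measurement in the treated group divided by that in the vehicle-treated control group.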

[1] = endpoint: mean survival time, dose: 200.0 mg/kg/injection, schedule: Q01DX009 (ip), vehicle: saline with Tween-80
[2] = endpoint: mean survival time, dose: 400.0 mg/kg/injection, schedule: Q01DX009 (ip), vehicle: saline with Tween-80
[3] = endpoint: mean survival time, dose: 100.0 mg/kg/injection, schedule: Q01DX001 (ip), vehicle: saline with Tween-80
[4] = endpoint: mean survival time, dose: 200.0 mg/kg/injection, schedule: Q01DX001 (ip), vehicle: saline with Tween-80
[5] = endpoint: mean survival time, dose: 400.0 mg/kg/injection, schedule: Q01DX001 (ip), vehicle: saline with Tween-80
[6] = endpoint: mean survival time, dose: 100.0 mg/kg/injection, schedule: Q04DX003 (ip), vehicle: saline with Tween-80
[7] = endpoint: mean survival time, dose: 12.5 mg/kg/injection, schedule: Q01DX009 (ip), vehicle: Klucel (hydroxypropylcellulose) (HPC)
[8] = endpoint: mean survival time, dose: 25.0 mg/kg/injection, schedule: Q01DX009 (ip), vehicle: Klucel (hydroxypropylcellulose) (HPC)
[9] = endpoint: mean survival time, dose: 50.0 mg/kg/injection, schedule: Q01DX009 (ip), vehicle: Klucel (hydroxypropylcellulose) (HPC)
[10] = endpoint: mean survival time, dose: 200.0 mg/kg/injection, schedule: Q01DX009 (ip), vehicle: Klucel (hydroxypropylcellulose) (HPC)
[11] = endpoint: mean survival time, dose: 100.0 mg/kg/injection, schedule: Q01DX009 (ip), vehicle: saline with Tween-80
[12] = endpoint: mean survival time, dose: 200.0 mg/kg/injection, schedule: Q04DX003 (ip), vehicle: saline with Tween-80
[13] = endpoint: mean survival time, dose: 400.0 mg/kg/injection, schedule: Q04DX003 (ip), vehicle: saline with Tween-80
[14] = endpoint: mean survival time, dose: 100.0 mg/kg/injection, schedule: Q01DX001 (ip), vehicle: Klucel (hydroxypropylcellulose) (HPC)
[15] = endpoint: mean survival time, dose: 200.0 mg/kg/injection, schedule: Q01DX001 (ip), vehicle: Klucel (hydroxypropylcellulose) (HPC)
[16] = endpoint: mean survival time, dose: 400.0 mg/kg/injection, schedule: Q01DX001 (ip), vehicle: Klucel (hydroxypropylcellulose) (HPC)
[17] = endpoint: mean survival time, dose: 50.0 mg/kg/injection, schedule: Q01DX009 (ip), vehicle: saline with Tween-80

Measured: T/C

CCCCCCCCCCCCCCCCOc1ccc(C(C)=O)cc1
inactive: [1] 89 % of control | [2] 96 % of control

Clc1ccc([I+]c2ccc(Cl)cc2)cc1
inactive: endpoint: median survival time, dose: 25.0 mg/kg/injection, schedule: Q04DX002 (ip), vehicle: saline with Tween-80 102 % of control | endpoint: median survival time, dose: 50.0 mg/kg/injection, schedule: Q04DX002 (ip), vehicle: saline with Tween-80 98 % of control | endpoint: median survival time, dose: 100.0 mg/kg/injection, schedule: Q04DX002 (ip), vehicle: saline with Tween-80 91 % of control

CCOC(=O)C(Cl)C(=O)OCC
inactive: [3] 108 % of control and 109 % of control | [4] 104 % of control and 105 % of control | [5] 120 % of control and 111 % of control

CCC(Cc1ccccc1Br)C1=NC(C)(C)CO1 (centres undefined)
inactive: endpoint: mean survival time, dose: 100.0 mg/kg/injection, schedule: Q01DX001 (ip), vehicle: acetone 96 % of control | endpoint: mean survival time, dose: 200.0 mg/kg/injection, schedule: Q01DX001 (ip), vehicle: acetone 98 % of control

CN(C)C(=O)/N=N/C(=O)N(C)C
inactive: endpoint: mean survival time, dose: 100.0 mg/kg/injection, schedule: Q01DX001 (ip), vehicle: saline 104 % of control

CNC(=O)OCC1C2=C(C(=O)C(C)=C(N)C2=O)N2CC3C(N3C)C12OC (centres undefined)
inactive: endpoint: mean survival time, dose: 75.0 mg/kg/injection, schedule: Q01DX001 (ip), vehicle: carboxymethylcellulose (CMC) 113 % of control | endpoint: mean survival time, dose: 150.0 mg/kg/injection, schedule: Q01DX001 (ip), vehicle: carboxymethylcellulose (CMC) 113 % of control

CCCCCCC(=C/c1ccccc1)/C=N/NC(=O)c1ccc[n+](C)c1
inactive: [6] 98 % of control

C=C[Si]12OCCN(CCO1)CCO2
inactive: [7] 97 % of control and 105 % of control | [8] 95 % of control and 96 % of control | [9] 92 % of control and 100 % of control | endpoint: mean survival time, dose: 100.0 mg/kg/injection, schedule: Q01DX009 (ip), vehicle: Klucel (hydroxypropylcellulose) (HPC) 92 % of control and 94 % of control | [10] 88 % of control and 94 % of control | endpoint: mean survival time, dose: 400.0 mg/kg/injection, schedule: Q01DX009 (ip), vehicle: Klucel (hydroxypropylcellulose) (HPC) 88 % of control and 95 % of control

CCCCNC(=O)Nc1ccc(C(=O)OCC(C)C)cc1
inactive: [11] 94 % of control | [6] 108 % of control | [1] 91 % of control | [12] 94 % of control | [2] 90 % of control | [13] 90 % of control

COC1OC(COC(c2ccccc2)(c2ccccc2)c2ccccc2)C(OC)C(OC)C1NC(C)=O (centres undefined)
inactive: [14] 91 % of control | [15] 96 % of control | [16] 96 % of control

CN1C(=O)CN=C(c2ccccc2)c2cc(Cl)ccc21
inactive: [7] 100 % of control | [8] 104 % of control | [9] 100 % of control | [10] 90 % of control

CCOC(=O)C(C)(Br)C(=O)OCC
inactive: [17] 104 % of control | [11] 105 % of control

[Pd].[Pd].[S-]CC[S-].[S-]CC[S-].c1ccc([PH+](c2ccccc2)c2ccccc2)cc1.c1ccc([PH+](c2ccccc2)c2ccccc2)cc1
inactive: endpoint: mean survival time, dose: 3.13 mg/kg/injection, schedule: Q04DX003 (ip), vehicle: distilled water + Tween-80 106 % of control | endpoint: mean survival time, dose: 6.25 mg/kg/injection, schedule: Q04DX003 (ip), vehicle: distilled water + Tween-80 98 % of control | endpoint: mean survival time, dose: 12.5 mg/kg/injection, schedule: Q04DX003 (ip), vehicle: distilled water + Tween-80 95 % of control | endpoint: mean survival time, dose: 25.0 mg/kg/injection, schedule: Q04DX003 (ip), vehicle: distilled water + Tween-80 92 % of control | endpoint: mean survival time, dose: 50.0 mg/kg/injection, schedule: Q04DX003 (ip), vehicle: distilled water + Tween-80 95 % of control | endpoint: mean survival time, dose: 100.0 mg/kg/injection, schedule: Q04DX003 (ip), vehicle: distilled water + Tween-80 92 % of control | endpoint: mean survival time, dose: 200.0 mg/kg/injection, schedule: Q04DX003 (ip), vehicle: distilled water + Tween-80 93 % of control

C[N+]1(O)C2CCC1CC(O)C2 (centres undefined)
inactive: [14] 97 % of control | [15] 104 % of control | [16] 97 % of control

CC(=O)N(C)C
inactive: endpoint: mean survival time, dose: 62.0 mg/kg/injection, schedule: Q01DX Z (ip), vehicle: saline 92 % of control | endpoint: mean survival time, dose: 112.0 mg/kg/injection, schedule: Q01DX009 (ip), vehicle: saline 100 % of control | endpoint: mean survival time, dose: 122.5 mg/kg/injection, schedule: Q01DX009 (ip), vehicle: saline 91 % of control | endpoint: mean survival time, dose: 125.0 mg/kg/injection, schedule: Q01DX Z (ip), vehicle: saline 96 % of control | endpoint: mean survival time, dose: 225.0 mg/kg/injection, schedule: Q01DX009 (ip), vehicle: saline 95 % of control and 97 % of control | endpoint: mean survival time, dose: 250.0 mg/kg/injection, schedule: Q01DX Z (ip), vehicle: saline 92 % of control | endpoint: mean survival time, dose: 450.0 mg/kg/injection, schedule: Q01DX009 (ip), vehicle: saline 101 % of control and 103 % of control | endpoint: mean survival time, dose: 500.0 mg/kg/injection, schedule: Q01DX Z (ip), vehicle: saline 102 % of control | endpoint: mean survival time, dose: 900.0 mg/kg/injection, schedule: Q01DX009 (ip), vehicle: saline 89 % of control and 90 % of control | endpoint: mean survival time, dose: 1800.0 mg/kg/injection, schedule: Q01DX009 (ip), vehicle: saline 117 % of control and 112 % of control

N#C/C=C1\NC(=O)CS1
inactive: [11] 114 % of control | [6] 96 % of control | [1] 101 % of control | [12] 100 % of control | [13] 102 % of control

COc1cc(/C=C/[N+](=O)[O-])cc(Br)c1OC
inactive: endpoint: median survival time, dose: 6.25 mg/kg/injection, schedule: Q01DX009 (ip), vehicle: saline with Tween-80 103 % of control | endpoint: median survival time, dose: 12.5 mg/kg/injection, schedule: Q01DX009 (ip), vehicle: saline with Tween-80 96 % of control | endpoint: median survival time, dose: 25.0 mg/kg/injection, schedule: Q01DX009 (ip), vehicle: saline with Tween-80 109 % of control

NC(=S)N/N=C1\c2cc(Cl)ccc2-c2c1cc(Cl)cc2[N+](=O)[O-]
inactive: endpoint: mean survival time, dose: 50.0 mg/kg/injection, schedule: Q01DX001 (ip), vehicle: carboxymethylcellulose (CMC) 102 % of control | endpoint: mean survival time, dose: 100.0 mg/kg/injection, schedule: Q01DX001 (ip), vehicle: carboxymethylcellulose (CMC) 102 % of control

COc1cc(Cl)ccc1NC(=O)Nc1c(C)n(C)n(-c2ccccc2)c1=O
inactive: [17] 90 % of control | [11] 90 % of control

CCOC(=O)C1=C(C)NC(C)=C(C(=O)OCC)C1C
inactive: endpoint: mean survival time, dose: 50.0 mg/kg/injection, schedule: Q04DX003 (ip), vehicle: saline with Tween-80 98 % of control and 100 % of control | [6] 101 % of control and 103 % of control and 108 % of control | [12] 95 % of control and 98 % of control and 104 % of control | [13] 122 % of control

CSc1nc(NC2OCC(O)C(O)C2O)c(I)c(=O)n1C (centres undefined)
inactive: endpoint: median survival time, dose: 12.5 mg/kg/injection, schedule: Q01DX005 (ip), vehicle: saline with Tween-80 103 % of control | endpoint: median survival time, dose: 25.0 mg/kg/injection, schedule: Q01DX005 (ip), vehicle: saline with Tween-80 101 % of control | endpoint: median survival time, dose: 50.0 mg/kg/injection, schedule: Q01DX005 (ip), vehicle: saline with Tween-80 101 % of control | endpoint: median survival time, dose: 100.0 mg/kg/injection, schedule: Q01DX005 (ip), vehicle: saline with Tween-80 100 % of control | endpoint: median survival time, dose: 200.0 mg/kg/injection, schedule: Q01DX005 (ip), vehicle: saline with Tween-80 100 % of control

CC(=O)C(CCCCCCCCCCC(C(C)=O)C(C)=O)C(C)=O
inactive: [3] 93 % of control | [4] 101 % of control | [5] 94 % of control
